The record followed here is PubChem BioAssay (NCI).

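Following 48 hours of exposure in 96-well plates, responses at five concentrations were used to interpolate endpoints linearly. The concentration for 50% growth inhibition is given as GI50. TGI is the concentration that stops growth completely.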 A value given as a limit tells only on which side of the number the result lay.

In the first test the test system is T-47D breast. Put plainly: NCI-60 cell line screen, 48 h.
Turning to `N#C/C(=C/N1CCN(C(=O)c2ccco2)C1=S)C(=O)c1ccccc1`, the GI50 was 7.16 µM and the TGI was greater than 100 µM.

As for `Nc1nc(SN=Nc2ccc(S(N)(=O)=O)cc2)c2[nH]cnc2n1`, the GI50 is 0.536 µM and the TGI was greater than 100 µM.

On to `CN(CCCNC(=O)Cc1ccc2ccc3cccc4ccc1c2c34)CCCNc1cc(-c2ccc3ccccc3c2)nc2ccccc12`, for which the GI50 was 2.04 µM and the TGI is 4.19 µM.

`COCCOc1cnc2ccn([C@H](C)c3nnc4c(F)cc(-c5cnn(C)c5)cn34)c(=O)c2c1`: the GI50 was greater than 100 µM and the TGI was greater than 100 µM.

With `CCc1ccccc1NC(=O)c1sc2nc3c(cc2c1N)C(=O)CCC3`, the GI50 is 0.533 µM and the TGI is greater than 79.8 µM.

For the molecule `CC(C)CNC(=O)O`, the TGI is greater than 100 µM.

Regarding `C[C@]12CC[C@@H]3c4ccc(O)cc4CC[C@H]3[C@@H]1CC[C@@H]2NS(=O)(=O)c1cccc(F)c1`, the GI50 was 3.82 µM and the TGI came to 14.8 µM.

Turning to `CCOC(=O)c1c[nH]c2oc(/C=N/N3CC(CN4CCOCC4)OC3=O)cc2c1=O` (stereo unspecified), the TGI was greater than 100 µM.

For `CCC(C)(C)c1ccc(OCCCCCCN2CCNCC2)cc1`, the GI50 was 1.72 µM and the TGI amounted to 3.78 µM.

Turning to `O=C(Nc1ccc(-n2cc(-c3ccncc3)c(-c3ccc(Cl)c(O)c3)n2)cc1)Nc1ccc(Cl)c(C(F)(F)F)c1`, the GI50 is 2.39 µM and the TGI is 6.54 µM.

Turning to `COc1ccc(C(=O)COc2cccc(/C=C3\Oc4ccc5ccccc5c4C3=O)c2)cc1`, the GI50 was 1.98 µM and the TGI was found to be 5.6 µM.

Turning to `COc1ccc(-c2oc3cc(O)c(OC)c(O)c3c(=O)c2OC)cc1O`, the GI50 was 0.819 µM and the TGI is greater than 100 µM.

For the molecule `Cc1cc(N/N=C/c2nc(-c3ccc(Br)cc3)oc2C)c2cc(Br)ccc2n1`, the GI50 was 1.88 µM and the TGI came out at 3.9 µM.

`Cc1cc(C2CC(O)C(CO)O2)cc2c(=O)[nH]c(N)nc12` (stereo unspecified): the GI50 was greater than 100 µM and the TGI was greater than 100 µM.

With `COc1cc(C2=C(c3cn(C)c4ccccc34)COC2=O)cc(OC)c1OC`, the GI50 was 0.0604 µM and the TGI came out at 8.65 µM.

With `CC(C)N=c1cc2n(-c3ccc(Cl)cc3)c3ccccc3nc-2cc1Nc1ccc(Cl)cc1`, the GI50 is 2.37 µM and the TGI was greater than 50 µM.

For the molecule `Oc1cn(-c2ccc(Cl)cc2)nc1-c1n[nH]c(=S)n1C1CCCCC1`, the GI50 is 6.62 µM and the TGI was greater than 100 µM.

For the molecule `Cc1ccc(S(=O)(=O)NCCNc2nccc(-c3c(-c4ccc(F)cc4)nc4sccn34)n2)cc1`, the GI50 is 3.85 µM and the TGI was greater than 100 µM.

On to `Cn1cc(C2=C(c3cn(CCCCCN)c4ccccc34)C(=O)NC2=O)c2ccccc21`, for which the GI50 is 6.23 µM and the TGI worked out at 21.6 µM.

Turning to `CCCCC1(CN2CCOCC2)S/C(=N/c2nc(CC(=O)OCC)cs2)NC1=O` (stereo unspecified), the GI50 is 41.5 µM and the TGI was greater than 100 µM.

Another test deals with HCT-116 colon. Put plainly: NCI-60 cell line screen, 48 h.
As for `N#C/C(=C/N1CCN(C(=O)c2ccco2)C1=S)C(=O)c1ccccc1`, the GI50 is 9.12 µM and the TGI turned out to be 57 µM.

For `Nc1nc(SN=Nc2ccc(S(N)(=O)=O)cc2)c2[nH]cnc2n1`, the GI50 is 0.374 µM and the TGI turned out to be 15.1 µM.

For `CN(CCCNC(=O)Cc1ccc2ccc3cccc4ccc1c2c34)CCCNc1cc(-c2ccc3ccccc3c2)nc2ccccc12`, the GI50 was 0.333 µM and the TGI worked out at 1.28 µM.

`COCCOc1cnc2ccn([C@H](C)c3nnc4c(F)cc(-c5cnn(C)c5)cn34)c(=O)c2c1`: the GI50 was greater than 100 µM and the TGI is greater than 100 µM.

As for `CCc1ccccc1NC(=O)c1sc2nc3c(cc2c1N)C(=O)CCC3`, the GI50 is 0.512 µM and the TGI was greater than 100 µM.

`CC(C)CNC(=O)O`: the TGI is greater than 100 µM.

As for `C[C@]12CC[C@@H]3c4ccc(O)cc4CC[C@H]3[C@@H]1CC[C@@H]2NS(=O)(=O)c1cccc(F)c1`, the GI50 is 2.63 µM and the TGI was determined as 7.33 µM.

In turn, `CCOC(=O)c1c[nH]c2oc(/C=N/N3CC(CN4CCOCC4)OC3=O)cc2c1=O` (stereo unspecified) came in with a TGI greater than 100 µM.

As for `CCC(C)(C)c1ccc(OCCCCCCN2CCNCC2)cc1`, the GI50 is 1.7 µM and the TGI was found to be 3.12 µM.

Take `O=C(Nc1ccc(-n2cc(-c3ccncc3)c(-c3ccc(Cl)c(O)c3)n2)cc1)Nc1ccc(Cl)c(C(F)(F)F)c1`: the GI50 was 1.29 µM and the TGI was 2.72 µM.

As to `Cc1cc(S(=O)(=O)N/N=C(\Sc2cc(Cl)c(C)cc2S(N)(=O)=O)c2ccc(Cl)cc2)c(Cl)cc1Cl`, the GI50 is 79.4 µM and the TGI is greater than 100 µM.

For `COc1ccc(C(=O)COc2cccc(/C=C3\Oc4ccc5ccccc5c4C3=O)c2)cc1`, the GI50 is 2.31 µM and the TGI is 4.94 µM.

With `COc1ccc(-c2oc3cc(O)c(OC)c(O)c3c(=O)c2OC)cc1O`, the GI50 is 0.0762 µM and the TGI turned out to be 6.56 µM.

`Cc1cc(N/N=C/c2nc(-c3ccc(Br)cc3)oc2C)c2cc(Br)ccc2n1`: the GI50 is 3.52 µM and the TGI was 12.2 µM.

Take `Cc1cc(C2CC(O)C(CO)O2)cc2c(=O)[nH]c(N)nc12` (stereo unspecified): the GI50 is greater than 100 µM and the TGI was greater than 100 µM.

Take `COc1cc(C2=C(c3cn(C)c4ccccc34)COC2=O)cc(OC)c1OC`: the GI50 was 0.0396 µM.

For the molecule `Cc1cc2c(cc1Cl)SC(=Nc1ccc(Cl)cc1)N(S(=O)(=O)c1ccccc1)S2(=O)=O`, the GI50 was 9.78 µM and the TGI stood at 21.5 µM.

Regarding `Oc1cn(-c2ccc(Cl)cc2)nc1-c1n[nH]c(=S)n1C1CCCCC1`, the GI50 is 0.612 µM and the TGI is 39.8 µM.

Regarding `Cc1ccc(S(=O)(=O)NCCNc2nccc(-c3c(-c4ccc(F)cc4)nc4sccn34)n2)cc1`, the GI50 is 3.88 µM and the TGI was greater than 100 µM.

Turning to `Cn1cc(C2=C(c3cn(CCCCCN)c4ccccc34)C(=O)NC2=O)c2ccccc21`, the GI50 is 5.85 µM and the TGI was greater than 16.7 µM.

With `CCCCC1(CN2CCOCC2)S/C(=N/c2nc(CC(=O)OCC)cs2)NC1=O` (stereo unspecified), the GI50 was 22 µM and the TGI came out at 63.1 µM.

`C=C1C(=O)O[C@H]2/C=C(/C)C3=CC(=O)[C@@](C)(C[C@@H](OC(=O)/C(C)=C\C)C12)O3` (stereo partly specified) registered a TGI of 1.11 µM.

`O=C(CSC(c1ccccc1)c1ccccc1)N/N=C/c1ccc(Cl)cc1Cl`: the GI50 was 18.5 µM and the TGI was 44.4 µM.

A further test has as its system BT-549 breast. The test is described as follows: NCI-60 cell line screen, 48 h.
As for `N#C/C(=C/N1CCN(C(=O)c2ccco2)C1=S)C(=O)c1ccccc1`, the GI50 was 7.77 µM and the TGI is 32.3 µM.

For `Nc1nc(SN=Nc2ccc(S(N)(=O)=O)cc2)c2[nH]cnc2n1`, the GI50 is 1.15 µM and the TGI was greater than 100 µM.

Turning to `COCCOc1cnc2ccn([C@H](C)c3nnc4c(F)cc(-c5cnn(C)c5)cn34)c(=O)c2c1`, the GI50 was greater than 100 µM and the TGI is greater than 100 µM.

`CCc1ccccc1NC(=O)c1sc2nc3c(cc2c1N)C(=O)CCC3`: the GI50 is 27.4 µM and the TGI is greater than 100 µM.

On to `CC(C)CNC(=O)O`, for which the TGI was greater than 100 µM.

As to `C[C@]12CC[C@@H]3c4ccc(O)cc4CC[C@H]3[C@@H]1CC[C@@H]2NS(=O)(=O)c1cccc(F)c1`, the GI50 is 2.82 µM and the TGI came to 8.46 µM.

As to `O=C(Nc1ccc(-n2cc(-c3ccncc3)c(-c3ccc(Cl)c(O)c3)n2)cc1)Nc1ccc(Cl)c(C(F)(F)F)c1`, the GI50 is 1.2 µM and the TGI is 2.79 µM.

`Cc1cc(S(=O)(=O)N/N=C(\Sc2cc(Cl)c(C)cc2S(N)(=O)=O)c2ccc(Cl)cc2)c(Cl)cc1Cl`: the GI50 was 61.8 µM and the TGI is greater than 100 µM.

`COc1ccc(C(=O)COc2cccc(/C=C3\Oc4ccc5ccccc5c4C3=O)c2)cc1`: the GI50 is 2.45 µM and the TGI was determined as 10.3 µM.

On to `Cc1cc(N/N=C/c2nc(-c3ccc(Br)cc3)oc2C)c2cc(Br)ccc2n1`, for which the GI50 was 10.7 µM and the TGI was determined as 23.3 µM.

As to `Cc1cc(C2CC(O)C(CO)O2)cc2c(=O)[nH]c(N)nc12` (stereo unspecified), the GI50 was greater than 100 µM and the TGI is greater than 100 µM.

Turning to `COc1cc(C2=C(c3cn(C)c4ccccc34)COC2=O)cc(OC)c1OC`, the GI50 is 0.0615 µM and the TGI was determined as 4.18 µM.

Take `CC(C)N=c1cc2n(-c3ccc(Cl)cc3)c3ccccc3nc-2cc1Nc1ccc(Cl)cc1`: the GI50 was 1.47 µM and the TGI was greater than 50 µM.

For `Cc1cc2c(cc1Cl)SC(=Nc1ccc(Cl)cc1)N(S(=O)(=O)c1ccccc1)S2(=O)=O`, the GI50 is 11.1 µM and the TGI worked out at 24.5 µM.

In the case of `Oc1cn(-c2ccc(Cl)cc2)nc1-c1n[nH]c(=S)n1C1CCCCC1`, the GI50 was 9.51 µM and the TGI was greater than 100 µM.

Take `Cc1ccc(S(=O)(=O)NCCNc2nccc(-c3c(-c4ccc(F)cc4)nc4sccn34)n2)cc1`: the GI50 was 5.83 µM and the TGI was 36 µM.

For `Cn1cc(C2=C(c3cn(CCCCCN)c4ccccc34)C(=O)NC2=O)c2ccccc21`, the GI50 was 8.62 µM and the TGI came to 24.3 µM.

For `CCCCC1(CN2CCOCC2)S/C(=N/c2nc(CC(=O)OCC)cs2)NC1=O` (stereo unspecified), the GI50 is 41.8 µM and the TGI was greater than 100 µM.

As to `C=C1C(=O)O[C@H]2/C=C(/C)C3=CC(=O)[C@@](C)(C[C@@H](OC(=O)/C(C)=C\C)C12)O3` (stereo partly specified), the TGI was found to be 3.11 µM.

With `O=C(CSC(c1ccccc1)c1ccccc1)N/N=C/c1ccc(Cl)cc1Cl`, the GI50 was 30 µM and the TGI came to 75.8 µM.

In another test the test system is COLO 205 colon. The test is described as follows: NCI-60 cell line screen, 48 h.
In the case of `N#C/C(=C/N1CCN(C(=O)c2ccco2)C1=S)C(=O)c1ccccc1`, the GI50 was 23.2 µM and the TGI was greater than 100 µM.

For `Nc1nc(SN=Nc2ccc(S(N)(=O)=O)cc2)c2[nH]cnc2n1`, the GI50 is 1.42 µM and the TGI stood at 3.6 µM.

Turning to `CN(CCCNC(=O)Cc1ccc2ccc3cccc4ccc1c2c34)CCCNc1cc(-c2ccc3ccccc3c2)nc2ccccc12`, the GI50 is 1.42 µM and the TGI worked out at 2.83 µM.

For the molecule `COCCOc1cnc2ccn([C@H](C)c3nnc4c(F)cc(-c5cnn(C)c5)cn34)c(=O)c2c1`, the GI50 was greater than 100 µM and the TGI was greater than 100 µM.

With `CCc1ccccc1NC(=O)c1sc2nc3c(cc2c1N)C(=O)CCC3`, the GI50 is 0.291 µM and the TGI is 1.06 µM.

Turning to `CC(C)CNC(=O)O`, the TGI is greater than 100 µM.

As to `C[C@]12CC[C@@H]3c4ccc(O)cc4CC[C@H]3[C@@H]1CC[C@@H]2NS(=O)(=O)c1cccc(F)c1`, the GI50 is 1.85 µM and the TGI was 3.61 µM.

Molecule `CCOC(=O)c1c[nH]c2oc(/C=N/N3CC(CN4CCOCC4)OC3=O)cc2c1=O` (stereo unspecified) registered a TGI greater than 100 µM.

Regarding `CCC(C)(C)c1ccc(OCCCCCCN2CCNCC2)cc1`, the GI50 is 1.77 µM and the TGI amounted to 3.51 µM.

Consider `O=C(Nc1ccc(-n2cc(-c3ccncc3)c(-c3ccc(Cl)c(O)c3)n2)cc1)Nc1ccc(Cl)c(C(F)(F)F)c1`, for which the GI50 is 1.68 µM and the TGI was 3.7 µM.
